The source of these data is patent US20210088529A1, “USE OF QUINALDINE RED AND DERIVATIVES THEREOF IN PREPARATION OF KIT FOR DETECTING AMYLOID FIBRILS” (Jilin University, priority 2019, published 2021).

In series [1] the target is T1, bovine insulin fibrils (Bos taurus, UniProt P01317). As to the kind of experiment: Fluorescence response (identification) of bovine insulin fibrils by the dye. It counts as binding. Particulars: for identification effect on bovine insulin fibrils (fluorescence intensity): dye 0.2 mM, dye-insulin 0.025 mM, dye-insulin fibril 0.025 mM, FIG. 3A / FIG. 7; for identification of bovine insulin fibril (fluorescence intensity, dye comparison): 0.05 ml dye + 0.05 ml fibrils, diluted with PBS to 1 ml. As to the method: 2) The bovine insulin fibrils were diluted with PBS to 0 μm, 1 μm, 3 μm, 5 μm, 10 μm, 20 μm and 30 μm respectively. Then the diluted samples were each added with 0.05 mL of […] (1 mM) solution, and tested in a fluorescence spectrometer for the fluorescence intensity (λex=440 nm). […] The results are shown in FIG. 1, where FIG. 1-A was the detection limit of QR on the bovine insulin fibrils; and FIG. 1-B was a linear interval for QR identification of the bovine insulin fibrils.
T1 sequence (P01317 25-54 limits assumed): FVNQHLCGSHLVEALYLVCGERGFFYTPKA
T1 sequence (P01317 85-105 limits assumed): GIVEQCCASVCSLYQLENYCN
QR (0.2 mM), QR-insulin (0.025 mM) and QR-insulin fibril (0.025 mM) were determined for fluorescence intensities respectively.
(§1) 0.05 ml of each of QR, ThT, ThS and NR solutions was taken, then added with 0.05 ml of the bovine insulin fibrils, diluted with 0.9 ml of PBS to 1 ml, and then determined for the fluorescence intensity.
The fluorescence intensities of 4-(4-dimethylaminostyryl)quinoline (0.2 mM), 4-(4-dimethylaminostyryl)quinoline-insulin (0.025 mM) and 4-(4-dimethylaminostyryl)quinoline-insulin fibrils (0.025 mM) were determined respectively.

Series [2] addresses insulin fibril (Bos taurus, UniProt P01317). The series can be described thus: Photobleaching experiment under ultraviolet light (365 nm). It counts as physicochemical, bovine. Conditions: UV 365 nm, insulin fibril 0.025 mM, dyes 0.05 mm, measured every 30 minutes; FIG. 6.
Experimental: A photobleaching experiment was carried out under ultraviolet light (365 nm). An insulin fibril (0.025 mM) was mixed with QR, ThT, ThS and NR respectively, with the concentrations of all dyes being 0.05 mm. The mixtures were placed under an ultraviolet lamp (365 nm) and measured for fluorescence every 30 minutes.
Series [3] deals with lysozyme fibrils (Gallus gallus, UniProt P00698). The series can be described thus: Fluorescence identification of lysozyme fibrils. It counts as binding. Particulars: lysozyme 0.1 mM fibrillated at 65° C. for 180 min; FIG. 3C. The protocol:
Formulation of a glycine/NaCl buffer solution: the pH value of the glycine/NaCl aqueous solution was adjusted to 2.0 with HCl, where the concentration of sodium chloride was 80 mM and the concentration of glycine was 70 mM.
The lysozyme (0.1 mM) was dissolved in a glycine/NaCl buffer solution for fibrillation at 65° C. under magnetic stirring at a rotation rate of 220 rmp for 180 min. The fluorescence intensities of QR, QR-lysozyme and QR-lysozyme fibrils were determined respectively.

For series [4], the target named is bovine insulin amyloid fibrils (Bos taurus, UniProt P01317). As to the kind of experiment: Monitoring the kinetic process of bovine insulin fibrillation by fluorescence. Conditions: 0.5 mM insulin in NaCl/HCl pH 1.6, samples at different time points, QR 1 mM 0.05 mL; FIG. 3B. The protocol:
As the mechanism of amyloid fibril-related disease was still being explored, and the kinetic process of the amyloid fibrils might provide relevant information for the mechanism, the kinetic process of the formation of the bovine insulin amyloid fibrils was monitored with QR. […] Three duplicate samples were made for each group of samples, and all of the above samples were determined on a fluorescence spectrometer for fluorescence intensities.

Series [5] has as its target T1, bovine insulin fibrils. The series can be described thus: QR replacement of a conventional probe bound to bovine insulin fibrils. It counts as binding. Conditions: ThS or NR bound first, then QR added, FIGS. 5B-5D. The protocol: as §1
Since the binding constant of binding between QR and the bovine insulin is the largest, ThT, ThS, and NR were first used to bind to the bovine insulin fibrils for fluorescence determination, then QR was added for a replacement reaction.

Series [6] deals with T2, bovine insulin (Bos taurus, UniProt P01317). As to the kind of experiment: Raman (SERS) study of the manner of binding between QR and bovine insulin. Conditions: SERS on silver sol, 532 nm, QR 0.01 mM, bovine insulin 0.01 mM; FIG. 2. The protocol:
The manner of binding between QR and the bovine insulin was studied by using a Raman spectrometer with an excitation line of a laser model of 532 nm. First, a silver sol was synthesized as a SERS (surface-enhancement raman scattering) substrate. The synthesized silver nanoparticles were respectively added with the bovine insulin (0.01 mM), QR (0.01 mM) and a mixed sample of them, for detection.

Series [7] addresses T2, bovine insulin. As to the kind of experiment: Isothermal titration calorimetry (ITC) of dyes with bovine insulin. Conditions: 25° C., insulin 0.25 mM, dyes 0.01 mM, FIG. 4. The format is binding. As to the method: Isothermal titration calorimetry (ITC): the bovine insulin was diluted to a final concentration of 0.25 mM, the QR, ThT, ThS, NR were each diluted to a final concentration of 0.01 mM, and then the aforementioned dyes were titrated with the bovine insulin at 25° C., where the dye was added dropwise into a sample chamber containing a solution of the bovine insulin through an automatically-controlled rotary syringe. At the same time, a blank test was carried out, where dye solutions with equal concentration and equal volume were added dropwise into ultra-pure water, and dilution heat was deducted to obtain a binding constant.
In general terms: Isothermal titration calorimetry measures the heat released or taken up as one component is titrated into another.

The target in series [8] is lysozyme amyloid fibrils (Gallus gallus, UniProt P00698). The series can be described thus: Monitoring the kinetic process of lysozyme fibrillation by fluorescence. Conditions: lysozyme 0.1 mM in glycine/NaCl pH 2.0, samples at different time points; FIG. 3D. The protocol:
The kinetic process of the formation of the lysozyme amyloid fibrils was monitored with QR. […] Three duplicate samples were made for each group of samples, and all of the above samples were determined on a fluorescence spectrometer for fluorescence intensities.

Sequence of insulin fibril (P01317 25-54 limits assumed): as the sequence (P01317 25-54 limits assumed) above
T2 sequence (P01317 25-54 limits assumed): as above
Sequence of bovine insulin amyloid fibrils (P01317 25-54 limits assumed): as above
Sequence of lysozyme fibrils (P00698 19-147): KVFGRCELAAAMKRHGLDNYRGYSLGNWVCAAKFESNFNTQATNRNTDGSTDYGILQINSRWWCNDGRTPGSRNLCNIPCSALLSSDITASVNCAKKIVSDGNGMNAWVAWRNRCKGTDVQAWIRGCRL
Sequence of lysozyme amyloid fibrils (P00698 19-147): as above

On to `CN(C)c1ccc(C=Cc2ccnc3ccccc23)cc1` [4-(4-dimethylaminostyryl)quinoline], for which, in series [1], the “identification effect on bovine insulin fibrils (fluorescence intensity)” value is “good identification effect”.

For the compound `CCN(CC)c1ccc2nc3c4ccccc4c(=O)cc-3oc2c1` [NR, nile red, reference compound], the “fluorescence intensity of dye + insulin fibrils with increase of the illumination time (photostability)” value in series [2] is reported as “decreased significantly”. Besides, in series [1] (FIG. 5-A), the “identification of bovine insulin fibril (fluorescence intensity, dye comparison)” value (shortened to “identification of bovine insulin fibril”) is “could well identify the bovine insulin fibril”.

Consider `CC[n+]1c(/C=C/c2ccc(N(C)C)cc2)ccc2ccccc21` [QR, quinaldine red], for which, in series [3], the “identification effect on lysozyme fibrils (fluorescence intensity)” value is “good identification effect”. For the same compound, the “fluorescence intensity of dye + insulin fibrils with increase of the illumination time (photostability)” value in series [2] is listed as “remained basically unchanged”. In series [1] (FIG. 5-A), the “identification of bovine insulin fibril” value is given as “could well identify the bovine insulin fibril”. In addition, in series [1], the “identification effect on bovine insulin fibrils (fluorescence intensity)” value is on record as “good identification effect”. The “linear range of fluorescence response to bovine insulin fibrils” value in series [1] (fibrils diluted with PBS to 0-30 μm, fluorescence spectrometer, FIG. 1) was 0-30 μm. In series [1] (red light region, FIG. 5-A), the “fluorescence intensity compared with the other dyes” value is “certain advantages of the fluorescence intensity in the red light region”. Also, the “detection of the dynamic process of bovine insulin fibrillation” value in series [4] was “could well detect the dynamic process of bovine insulin fibrillation”. Also, the “replacement of ThT, ThS, NR bound to bovine insulin fibrils” value in series [5] is reported as “replacement effect was obvious”. The “Raman signal between 900-1100 cm-1” value in series [6] was “the signal for QR-insulin was disappeared”. In series [7], the “binding constant of binding with the bovine insulin (comparison among dyes)” value is given as “largest binding constant”. The “detection of the dynamic process of lysozyme fibrillation” value in series [8] was “could well detect the dynamic process of lysozyme fibrillation”.

`Cc1ccc2c(c1)sc(-c1ccc(N(C)C)cc1)[n+]2C.[Cl-]` [ThT, Thioflavin T, reference compound]: in series [2], the “fluorescence intensity of dye + insulin fibrils with increase of the illumination time (photostability)” value is listed as “decreased significantly”. The “identification of bovine insulin fibril” value in series [1] (FIG. 5-A) was “could well identify the bovine insulin fibril”.

For Thioflavin S [ThS, reference compound], the “fluorescence intensity of dye + insulin fibrils with increase of the illumination time (photostability)” value in series [2] is “decreased significantly”. Also, the “identification of bovine insulin fibril” value in series [1] (FIG. 5-A) is reported as “could well identify the bovine insulin fibril”.
